Mutagenic call and call data for 14 compounds are collected here from PubChem BioAssay AID1259408 (Genetic Toxicology Data Bank (GENE-TOX), 2018).

The test system of this data set is GENE-TOX genotoxicity assays, various organisms and cells. Kind of data set: GENE-TOX mutagenicity studies. The settings on record: for call: Assay Type: In vivo carcinogenicity studies.
Where [1] appears, read: Species/Cell Type: Drosophila melanogaster, Assay Type: Sex-linked recessive lethal gene mutation, Assay Code: SRLT, Evaluation Type: Evaluation A (Pre-1980).
Where [2] appears, read: Species/Cell Type: Mouse, Sex: Male, Assay Type: Sperm morphology, Assay Code: SPI-, Evaluation Type: Evaluation A (Pre-1980).
[3] abbreviates: Species/Cell Type: Salmonella typhimurium (one or more of the five standard strains: TA98, TA100, TA1535, TA1537, and TA1538), Assay Type: Histidine reverse gene mutation, Ames assay, Assay Code: SAL+*, Activation: With metabolic activation, Evaluation Type: Evaluation A (Pre-1980).
Setting [4] is: Species/Cell Type: Chinese hamster lung (V79) cells, Assay Type: Forward gene mutation at the HPRT or ouabain locus, Assay Code: V79+, Evaluation Type: Evaluation A (Pre-1980).
[5] abbreviates: Species/Cell Type: Salmonella typhimurium (one or more of the five standard strains: TA98, TA100, TA1535, TA1537, and TA1538), Assay Type: Histidine reverse gene mutation, Ames assay, Assay Code: SALT, Evaluation Type: Evaluation A (Pre-1980).

The structures appear in SMILES notation. Activity calls are given as the source filed them. How the calls were made is not given here.

With `CC(=O)Nc1ccc2c(c1)Cc1ccccc1-2`, the mutagenic call is “inactive; negative” (Species/Cell Type: Chinese hamster lung (V79) cells, Assay Type: Forward gene mutation at the HPRT or ouabain locus, Assay Code: V79-, Evaluation Type: Evaluation A (Pre-1980)); “active; positive” (Species/Cell Type: Chinese hamster ovary (CHO) cells, Assay Type: Forward gene mutation at the HPRT locus, Assay Code: CHO+*, Activation: With metabolic activation, Evaluation Type: Evaluation B (Post-1980)); “no conclusion” under setting [1]; “active; positive” (Species/Cell Type: Escherichia coli polA (W3110 vs P3478), Assay Type: Rec-assay, DNA effects (bacterial DNA repair), Assay Code: RE2+, Evaluation Type: Evaluation A (Pre-1980)); “inactive; negative” (Species/Cell Type: Escherichia coli polA (W3119 vs P3478), Assay Type: Rec-assay, DNA effects (bacterial DNA repair), Assay Code: RE1-, Evaluation Type: Evaluation A (Pre-1980)); “no conclusion” (Species/Cell Type: Fischer rat embryo (RLV/1706) cells, Assay Type: Cell transformation, viral enhanced, Assay Code: CTRT, Evaluation Type: Evaluation A (Pre-1980)). Also, the mutagenic call by setting is: (Species/Cell Type: Human diploid fibroblasts, Assay Type: Unscheduled DNA synthesis (UDS) in vitro, DNA effects, Assay Code: UDHT, Evaluation Type: Evaluation A (Pre-1980)) “no conclusion”; (Species/Cell Type: Human lymphocytes, Assay Type: Sister-chromatid exchange (SCE) in vitro, Assay Code: SCL-, Evaluation Type: Evaluation A (Pre-1980)) “inactive; negative”; (Species/Cell Type: Human, Assay Type: Sister-chromatid exchange (SCE) in vitro, Assay Code: SC1+D, Dose Response: With dose response, Evaluation Type: Evaluation B (Post-1980)) “active; positive”; (Species/Cell Type: Human, Assay Type: Sister-chromatid exchange (SCE) in vitro, Assay Code: SC1-, Evaluation Type: Evaluation A (Pre-1980)) “inactive; negative”; (Species/Cell Type: Mammalian polychromatic erythrocytes, Assay Type: Micronucleus test, chromosome aberrations, Assay Code: MNT+, Evaluation Type: Evaluation A (Pre-1980)) “active; positive”; (Species/Cell Type: Mouse (BALB/c-3T3) cells, Assay Type: Cell transformation, Assay Code: CTB+D, Dose Response: With dose response, Evaluation Type: Evaluation A (Pre-1980)) “active; positive”. In addition, the mutagenic call is “active; positive” (Species/Cell Type: Mouse lymphoma (L5178Y) cells, Assay Type: Forward gene mutation at the thymidine kinase (TK) locus, chromosome aberrations, Assay Code: L51+*, Activation: With metabolic activation, Evaluation Type: Evaluation A (Pre-1980)); “inactive; negative” under setting [2]; “active; positive” (Species/Cell Type: Nonhuman, Assay Type: Sister-chromatid exchange (SCE) in vitro, Assay Code: SC2+, Evaluation Type: Evaluation A (Pre-1980)); “active; positive” (Species/Cell Type: Nonhuman, Assay Type: Sister-chromatid exchange (SCE) in vivo, Assay Code: SC3+D, Dose Response: With dose response, Evaluation Type: Evaluation B (Post-1980)); “no conclusion” (Species/Cell Type: Nonhuman, Assay Type: Sister-chromatid exchange (SCE) in vivo, Assay Code: SC3T, Evaluation Type: Evaluation A (Pre-1980)); “active; positive” (Species/Cell Type: Rat primary hepatocytes, Assay Type: Unscheduled DNA synthesis (UDS) in vitro, DNA effects, Assay Code: UDP+, Evaluation Type: Evaluation A (Pre-1980)). In addition, the mutagenic call is, setting by setting: (Species/Cell Type: Saccharomyces cerevisiae, Assay Type: Mitotic recombination or gene conversion, Assay Code: YEC-*, Activation: With metabolic activation, Evaluation Type: Evaluation A (Pre-1980)) “inactive; negative”; (Species/Cell Type: Saccharomyces cerevisiae, Assay Type: Mitotic recombination or gene conversion, Assay Code: YEH-*, Activation: With metabolic activation, Evaluation Type: Evaluation A (Pre-1980)) “inactive; negative”; under setting [3], “active; positive”; (Species/Cell Type: Salmonella typhimurium, Assay Type: Forward and reverse gene mutation, body fluid assay, Assay Code: BFU+, Evaluation Type: Evaluation A (Pre-1980)) “active; positive”; (Species/Cell Type: Salmonella typhimurium, Assay Type: Forward and reverse gene mutation, host-mediated assay, Assay Code: HMA+, Evaluation Type: Evaluation A (Pre-1980)) “active; positive”; (Species/Cell Type: Syrian hamster embryo (SA7/SHE) cells, Assay Type: Cell transformation, viral enhanced, Assay Code: CT7-, Evaluation Type: Evaluation A (Pre-1980)) “inactive; negative”. In addition, the mutagenic call (Species/Cell Type: Syrian hamster embryo (SHE) cells, Assay Type: Cell transformation, clonal assay, Assay Code: CTC+D*, Activation: With metabolic activation, Dose Response: With dose response, Evaluation Type: Evaluation A (Pre-1980)) was “active; positive”. The call (Species/Cell Type: Nonhuman, Assay Code: CCG+, Evaluation Type: Evaluation A (Pre-1980)) is “active; positive”.

For `CC(C)C(O)(C(=O)OCC1=CC[N@+]2([O-])CCCC12)[C@H](C)O` (stereo not given in full), the mutagenic call under setting [1] is “no conclusion”.

Turning to `[N-]=[N+]=O`, the mutagenic call by setting is: under setting [4], “active; positive”; under setting [2], “inactive; negative”; (Species/Cell Type: Nonhuman, Assay Type: Sister-chromatid exchange (SCE) in vitro, Assay Code: SC2T, Evaluation Type: Evaluation B (Post-1980)) “no conclusion”; (Species/Cell Type: Tradescantia species, Assay Type: Gene mutation, Assay Code: TRM+D, Dose Response: With dose response, Evaluation Type: Evaluation A (Pre-1980)) “active; positive”. Also, the call (Species/Cell Type: Nonhuman, Assay Code: CCGT, Evaluation Type: Evaluation A (Pre-1980)) is given as “no conclusion”.

Consider `Nc1c(N=Nc2ccc([N+](=O)[O-])cc2)c(S(=O)(=O)O)cc2cc(S(=O)(=O)O)c(N=Nc3ccccc3)c(O)c12`, for which the mutagenic call (Species/Cell Type: Bacillus subtilis (H17 vs M45), Assay Type: Rec-assay, spot test, DNA effects (bacterial DNA repair), Assay Code: REWT, Evaluation Type: Evaluation A (Pre-1980)) is “no conclusion”.

For `CCNCCNc1ccc(CO)c2sc3ccccc3c(=O)c12`, the mutagenic call (Species/Cell Type: Fischer rat embryo (RLV/1706) cells, Assay Type: Cell transformation, viral enhanced, Assay Code: CTR+, Evaluation Type: Evaluation A (Pre-1980)) was “active; positive”.

On to `Clc1cccc(C2CO2)c1` (stereo not given), for which the mutagenic call by setting is: (Species/Cell Type: Escherichia coli WP2 UVRA, Assay Type: Tryptophan reverse gene mutation, Assay Code: WPU+D, Dose Response: With dose response, Evaluation Type: Evaluation A (Pre-1980)) “active; positive”; under setting [5], “no conclusion”.

`CCCCNCC`: the mutagenic call (Species/Cell Type: Fischer rat embryo (RLV/1706) cells, Assay Type: Cell transformation, viral enhanced, Assay Code: CTR-, Evaluation Type: Evaluation A (Pre-1980)) was “inactive; negative”.

With `Nc1cc(N)c(N=Nc2ccc(S(=O)(=O)O)cc2)cc1N=Nc1ccc(S(=O)(=O)O)cc1` (tested in a mixture with another compound), under “Species/Cell Type: Salmonella typhimurium (one or more of the five standard strains: TA98, TA100, TA1535, TA1537, and TA1538), Assay Type: Histidine reverse gene mutation, Ames assay, Assay Code: SAL+, Evaluation Type: Evaluation A (Pre-1980)”, the mutagenic call is “active; positive”.

With `COc1ccc2c(ccc3c4c(ccc32)C(=O)CC4)c1`, the mutagenic call under setting [5] is “no conclusion”.

For `COc1cc2c(c(OC)c1OC)-c1ccc(OC)c(=O)cc1[C@@H](NC(C)=O)CC2`, the mutagenic call runs as follows: (Species/Cell Type: Drosophila melanogaster, Assay Type: Aneuploidy, sex chromosome gain, chromosome aberrations, Assay Code: DAG+F, Evaluation Type: Evaluation A (Pre-1980)) “active; positive”; (Species/Cell Type: Drosophila melanogaster, Assay Type: Aneuploidy, whole sex chromosome loss, chromosome aberrations, Assay Code: DAC+F, Evaluation Type: Evaluation A (Pre-1980)) “active; positive”; (Species/Cell Type: Glycine max (soybean), Assay Type: Gene mutation, Assay Code: GLM+, Evaluation Type: Evaluation A (Pre-1980)) “active; positive”; (Species/Cell Type: Human, Sex: Male, Assay Type: Sperm morphology, Assay Code: SPHT, Evaluation Type: Evaluation A (Pre-1980)) “no conclusion”; (Species/Cell Type: Mammalian cell culture, nonhuman, Assay Type: Micronucleus test in vitro, chromosome aberrations, Assay Code: MN&+, Evaluation Type: Evaluation A (Pre-1980)) “active; positive”; (Species/Cell Type: Mammalian polychromatic erythrocytes, Assay Type: Micronucleus test, chromosome aberrations, Assay Code: MNT+, Evaluation Type: Evaluation B (Post-1980)) “active; positive”. Moreover, the mutagenic call is “no conclusion” (Species/Cell Type: Mammalian polychromatic erythrocytes, Assay Type: Micronucleus test, chromosome aberrations, Assay Code: MNTT, Evaluation Type: Evaluation A (Pre-1980)); “active; positive” (Species/Cell Type: Mouse, Sex: Male, Assay Type: Sperm morphology, Assay Code: SPI+, Evaluation Type: Evaluation A (Pre-1980)); “inactive; negative” (Species/Cell Type: Neurospora crassa, Assay Type: Aneuploidy, chromosome aberrations, Assay Code: NEN-, Evaluation Type: Evaluation A (Pre-1980)); “inactive; negative” (Species/Cell Type: Nonhuman, Assay Type: Sister-chromatid exchange (SCE) in vivo, Assay Code: SC3-, Evaluation Type: Evaluation B (Post-1980)); “active; positive” (Species/Cell Type: Plant, Assay Type: Micronucleus test, chromosome aberrations, Assay Code: MNP+, Evaluation Type: Evaluation A (Pre-1980)).

For the compound `Cc1ccc2cc3c(c4c2c1CC4)[C@@H](O)[C@@H](O)c1ccccc1-3`, the mutagenic call is “active; positive” under setting [4] and “no conclusion” (Species/Cell Type: Mouse prostate cells, Assay Type: Cell transformation, Assay Code: CTMT, Evaluation Type: Evaluation A (Pre-1980)).

For the compound `CN(C)c1ccc(C(=C2C=CC(=[N+](C)C)C=C2)c2c(O)c(S(=O)(=O)[O-])cc3cc(S(=O)(=O)O)ccc23)cc1`, where the note is “Species/Cell Type: Saccharomyces cerevisiae, Assay Type: Mitotic recombination or gene conversion, Assay Code: YEC-, Evaluation Type: Evaluation A (Pre-1980)”, the mutagenic call was “inactive; negative”.

Turning to `c1ccc2c3c(ccc2c1)Cc1c(ccc2ccccc12)C3`, the mutagenic call under setting [3] was “active; positive”.

On to `O.O.O.O.O.O.[Cl-].[Cl-].[Ni+2]`, for which the mutagenic call (Species/Cell Type: Nonhuman, Assay Type: Sister-chromatid exchange (SCE) in vitro, Assay Code: SC2+, Evaluation Type: Evaluation B (Post-1980)) was “active; positive”.
